Measurements published in US20220133884A1, “COMPOUNDS USEFUL AS ADJUVANTS” (MILLENNIUM PHARMACEUTICALS, INC., priority 2019, published 2022).

Tests used:
T cells and NK cells = experiment: Study 1: early lymphocyte activation marker CD69 on T cells and NK cells in lymph nodes (flow cytometry); format: in vivo, Balb/c mice; conditions: ~18 hours post subcutaneous injection, Compound I-263a 7.5 mg/kg, CpG 2.5 mg/kg
Protocol: (§1) Unless otherwise stated, immune cell profiling was performed using flow cytometry on a BD (Beckton Dickinson) LSRII Fortessa.
(§2) The goal of this study was to investigate the in vivo effects of Compound I-263a alone or in combination with a TLR9 agonist (CpG) with respect to the recruitment and activation of innate immune cells at regional draining lymph nodes (LNs). On day 0 in the evening, eight to ten week old female Balb/c mice (Jackson Labs, Bar Harbor, Me.) were injected subcutaneously bilaterally close to the two brachial LNs (50 μL each side) with one of the formulations shown in Table 1 (n=5 mice per group). On day 1 (˜18 hours post injection) the mice were euthanized. The inflamed brachial LNs as well as the distal non-inflamed inguinal LNs were harvested from each mouse individually. Single cell suspensions were generated by homogenizing the LNs on a 70μ cell strainer using 3 mL syringe plungers, followed by wash with FACS staining buffer (BD Biosciences, Cat #554657). The cell pellet was re-suspended in 100 μL of FACS buffer for staining on a 96-well U-bottom tissue culture plate (Corning). Each sample was stained using the flow cytometry panel (see Table 2 below) of antibodies followed by acquisition and analysis on BD LSRII Fortessa. For positive controls, 1 drop of ultracomp beads (Invitrogen, Cat #01-2222-42) were stained with 1 μL of the respective antibodies.

[1] = test system: dendritic cells (CD11c+ cells); experiment: Study 1: activation of dendritic cells in lymph nodes after subcutaneous injection (flow cytometry); format: in vivo, Balb/c mice; conditions: ~18 hours post subcutaneous injection near brachial LNs, relative to vehicle treated mice
Protocol: as §1, §2

B16F10-OVA tumors = experiment: Study 3: prophylactic vaccination and B16F10-OVA tumor challenge; format: in vivo, C57BL/6 mice; conditions: SC pre-treatment Day -14 to Day -4, tumor challenge Day 0; Ovalbumin 100 ug QWx2, Compound I-263a 15 mg/kg BIWx2, poly (I:C) 50 ug BIWx2; FIG. 5A/5B
Protocol: The goal of this study was to evaluate the prophylactic effects of OVA+Compound 1-263a vaccination in mice challenged with tumors expressing the OVA antigen (B16F10-OVA). The B16F10-OVA cell line was generated in-house by stable integration of the chicken ovalbumin gene into the Rosa26 locus. Eight to ten-week-old female C57BL/6 mice (Jackson Labs, Bar Harbor, Me.) were injected with one of the formulations shown in Table 5 subcutaneously (SC) near the nape. All mice were subsequently challenged on Day 0 with 0.3e6 B16F10-OVA tumor cells/mouse subcutaneously (n=16 mice/group, except group 5 (ovalbumin+Compound 1-263a) for which n=15). Tumor growth was measured every 2-3 days using digital calipers and tumor volume was calculated as: L×W×(W/2).

| Molecule | early lymphocyte activation marker CD69 on T cells in the brachial LNs (T cells and NK cells; FIG. 2a) | early lymphocyte activation marker CD69 on NK cells in the brachial LNs (T cells and NK cells; FIG. 2b) | expression of marker CD86 on CD11c+ cells in the distal inguinal LNs ([1]; 7.5 mg/kg, FIG. 1b) | expression of marker CD40 on CD11c+ cells in the brachial LNs ([1]; Compound I-263a 7.5 mg/kg, CpG 2.5 mg/kg, FIG. 1a) | expression of marker CD86 on CD11c+ cells in the brachial LNs ([1]; Compound I-263a 7.5 mg/kg, CpG 2.5 mg/kg, FIG. 1b) | growth of B16-F10 tumors expressing OVA (tumor protection) (B16F10-OVA tumors) |
| --- | --- | --- | --- | --- | --- | --- |
| Cc1sc(C(=O)c2cncnc2N[C@@H]2C[C@H](COS(N)(=O)=O)[C@@H](O)C2)cc1[C@@H]1NCCc2ccc(Cl)cc21 [Compound I-263a, [(1R,2S,4R)-4-{[5-({4-[(1R)-7-chloro-1,2,3,4-tetrahydroisoquinolin-1-yl]-5-methyl-2-thienyl}carbonyl)pyrimidin-4-yl]amino}-2-hydroxycyclopentyl]methyl sulfamate] | changes in the early lymphocyte activation marker CD69 were observed | changes in the early lymphocyte activation marker CD69 were observed | but not in the distal inguinal LNs | increases | increases | did not confer tumor protection |
| OVA: chicken ovalbumin protein antigen, EndoFit Ovalbumin, InvivoGen (protein, UniProt P01012 2-386, looked up) Ovalbumin: GSIGAASMEFCFDVFKELKVHHANENIFYCPIAIMSALAMVYLGAKDSTRTQINKVVRFDKLPGFGDSIEAQCGTSVNVHSSLRDILNQITKPNDVYSFSLASRLYAEERYPILPEYLQCVKELYRGGLEPINFQTAADQARELINSWVESQTNGIIRNVLQPSSVDSQTAMVLVNAIVFKGLWEKAFKDEDTQAMPFRVTEQESKPVQMMYQIGLFRVASMASEKMKILELPFASGTMSMLVLLPDEVSGLEQLESIINFEKLTEWTSSNVMEERKIKVYLPRMKMEEKYNLTSVLMAMGITDVFSSSANLSGISSAESLKISQAVHAAHAEINEAGREVVGSAEAGVDAASVSEEFRADHPFLFCIKHIATNAVLFFGRCVSP | – | – | – | – | – | did not confer tumor protection |
